We go through one compound from US20140274969A1 (priority 2013, published 2014).

Data set [1] relates to mixed neuronal and glial spinal cord cultures. Particulars: 20 nM, 30 minutes before 24-hour excitotoxin exposure; cited from earlier work.
Data set [2] has as its system acute traumatic SCI. As to the kind of experiment: Functional recovery scales (SCIM, FIM, London Handicap, SF36) after SCI. The class given is in vivo, human. Particulars: 6 to 52 weeks after injury. As for the experimental part:
Clin. Exp. Pharmacol. Physiol. 1:299-308). […] Functional outcome was assessed using the Spinal Cord Independence Measure, Functional Independence Measure, London Handicap scale, and Short Form 36 questionnaires administered at 6 weeks, 12 weeks, 26 weeks, and 52 weeks after injury. […] ASIA sensory scores were similarly evaluated. […] Functional recovery data were compared over all data points. […] All statistical tests were two-tailed (a=0.05).

The nature of data set [3]: Serum and CSF minocycline steady-state levels in SCI trial subjects. As to the method:
Drug or placebo infusions were continued for a total of 14 doses i.e., for 7 days after injury (FIG. 1). All infusions were administered through a subclavian central venous catheter for a 30-min period.
Each sample was centrifuged at 2000 rpm for 5 min to separate cellular matter. The supernatant was flash frozen and stored at −80° C. in aliquots.

For data set [4], the system named is SCI. Particulars: mice; two 50 mg/kg i.p. doses then three 25 mg/kg doses at 24 h intervals; cited from earlier work.
For data set [5] the following is noted: cited from earlier work.
A further data set deals with cervical SCI. Particulars: rat; 90 mg/kg i.p. daily for 3 days; 42-day monitoring; cited from earlier work.
Data set [6] deals with SCI. Particulars: rats; three 30 mg/kg i.p. doses at 30 min, 60 min, 24 h after SCI; 28-day observation; cited from earlier work.
Data set [7] deals with acute traumatic SCI. Briefly: ASIA sensory recovery (pinprick, light touch) after acute traumatic SCI. The class given is in vivo, human. As for the experimental part: Clin. Exp. Pharmacol. Physiol. 1:299-308). […] Neurological function was assessed at intervals using the American Spinal Cord Injury Association (ASIA) standardized neurological examination and included the motor composites and sensory composites. These examinations were performed by a physical medicine and rehabilitation specialist at Day 1 (time of enrolment), Day 4, Day 5, Day 7, Week 3, Week 6, Week 12, Month 6, and Month 12 (Table 3). Day 1 scores were subtracted from each subsequent score to calculate improvement from baseline for graphing purposes. […] ASIA sensory scores were similarly evaluated. […] Functional recovery data were compared over all data points. […] All statistical tests were two-tailed (a=0.05).

Setting [8] is: 200 mg twice-daily intravenously.
Setting [9] is: 800 mg loading dose tapered by 100 mg every 12 h to 400 mg, IV, 7 days.

Like-named read-outs stand apart in the source and are kept apart here.

As to `CN(C)c1ccc(O)c2c1C[C@H]1C[C@H]3[C@H](N(C)C)C(O)=C(C(N)=O)C(=O)[C@@]3(O)C(O)=C1C2=O` [minocycline, (2E,4S,4aR,5aS,12aR)-2-(amino-hydroxy-methylidene)-4,7-bis(dimethylamino)-10,11,12a-trihydroxy-4-a,5,5a,6-tetrahydro-4H-tetracene-1,3,12-trione], in data set [1], the “IL-1β and NO metabolite production” value is “reduced”; the microglia proliferation entry is listed as “Inhibition”; the neuronal cell survival entry is “more than doubled”. Besides, the “functional outcomes (SCIM, FIM, London Handicap Scale, Short Form 36) vs placebo” value in the data set with acute traumatic SCI [2] was “greater in the minocycline-treated group but the differences were not statistically significant”. In addition, in data set [3] (setting [8]), the CSF steady-state concentration was determined as 1 µg/mL and the “time to serum steady state” value is at most 48 h. The same compound showed a serum steady-state concentration in data set [3] (200 mg twice-daily intravenously, first five patients) of 4.2 µg/mL. Besides, in data set [3] (800 mg loading dose tapered by 100 mg every 12 h to 400 mg, IV), the “time to serum and CSF steady state” value is recorded as at most 24 h. Further, in data set [3] (setting [9]), the CSF steady state stood at 2.3 µg/mL and the serum steady-state concentration turned out to be 12.7 µg/mL. For the same compound, the “recovery from SCI” value with SCI [4] was “facilitated significant recovery”. For the same compound, in data set [5] (human, in vivo), the “eliminated unchanged through the kidneys” value is recorded as “Eight to twelve”; the “elimination in biologically active form through the feces” value is on record as 20-35 % of the initial dose; the “metabolism to three inactive liver metabolites excreted in urine and feces” value is recorded as 50-60 % of the administered dose. The peak serum concentration result in data set [5] (oral 150 mg) is given as “about 2 mg/L”. In data set [5] (oral 300 mg), the peak serum concentration entry is recorded as “about 4 mg/L”. Besides, the half-life in data set [5] (oral or intravenous administration) was 16 h. Moreover, in the data set with cervical SCI, the “functional or histological improvements” value is “did not result in any functional or histological improvements”. Moreover, in the data set with SCI [6], the “recovery in functional hind limb motor control” value is “facilitated significant recovery”. Also, the “ASIA pinprick sensory recovery greater than placebo” value in the data set with acute traumatic SCI [7] (all subjects, not statistically significant, P=0.15) is given as “nine”. Also, the “ASIA light-touch sensory recovery greater than placebo” value in the data set with acute traumatic SCI [7] (all subjects, not statistically significant, P=0.27) is recorded as “seven”. For the same compound, the “ASIA light-touch score higher than placebo” value in the data set with acute traumatic SCI [7] (cervical motor-incomplete, P=0.20) came to 20 light-touch points. Moreover, in the data set on acute traumatic SCI [7] (cervical motor-incomplete, P=0.49), the “ASIA pinprick score higher than placebo” value was 14 pinprick points. Moreover, the “difference in sensory scores vs placebo” value in the data set with acute traumatic SCI [7] (thoracic SCI) is on record as “No difference”.

For orientation: half-life means the time needed for the level to fall by half in the phase considered.
